Test [1] deals with neural stem cells procured from mice. As to the kind of experiment: Neuronal differentiation-inducing activity in mouse neural stem cell culture (immune antibody procedure, MAPs and NeuN markers). It is filed as cell-based. Particulars: same tests as for samples 1 and 6 (10 ng/mL and 100 ng/mL, 24 hours), concentration of the result not stated.
Test [2] concerns adipose stem cells procured from humans. As to the kind of experiment: Neuronal differentiation-inducing activity in human adipose stem cell culture (immune antibody procedure, MAPs and NeuN markers). It is filed as cell-based. To be noted: same tests as for samples 1 and 6 (10 ng/mL and 100 ng/mL, 24 hours), concentration of the result not stated.

Ends that are not written are not given here.

For “YARAAARQARA-ALFELCGRAV (YARAAARQARAALFELCGRAV) [sample 23, PTD4 plus 10 residues from the N terminal of the BC-box of MUF1]”, the “degree of neuronal differentiation” value in test [1] and in test [2] was “significant neuronal differentiation” in each case.

Regarding “YARAAARQARA-PLAHLCRLRVRKAIG (YARAAARQARAPLAHLCRLRVRKAIG) [sample 7]”, the “degree of neuronal differentiation” value in test [1] and in test [2] was “significant neuronal differentiation” in each case.

With “YARAAARQARA-PLMDLCRRSVRLALG (YARAAARQARAPLMDLCRRSVRLALG) [sample 20]”, the “degree of neuronal differentiation” value in test [1] and in test [2] was “significant neuronal differentiation” throughout.

Take “YARAAARQARA-PLQELCRQRIVAAVG (YARAAARQARAPLQELCRQRIVAAVG) [sample 11]”: the “degree of neuronal differentiation” value in test [1] and in test [2] was “significant neuronal differentiation” throughout.

Turning to “YARAAARQARA-SLKHLCRKALRSFLT (YARAAARQARASLKHLCRKALRSFLT) [sample 5]”, the “degree of neuronal differentiation” value in test [1] and in test [2] was “significant neuronal differentiation” in each case.

As for “YARAAARQARA-SLQDLCCRAVVSCTP (YARAAARQARASLQDLCCRAVVSCTP) [sample 10]”, the “degree of neuronal differentiation” value in test [1] and in test [2] was “significant neuronal differentiation” throughout.

Turning to “YARAAARQARA-SLQFLALKALISERR (YARAAARQARASLQFLALKALISERR-NH2) [sample 21]”, the “degree of neuronal differentiation” value in test [1] and in test [2] was “significant neuronal differentiation” throughout.

Regarding “YARAAARQARA-SLQHICRMSI (YARAAARQARASLQHICRMSI) [sample 17, PTD4 plus 10 residues from the N terminal of the BC-box of mWSB-1]”, the “degree of neuronal differentiation” value in test [1] and in test [2] was “significant neuronal differentiation” in each case.

With “YARAAARQARA-SLQHICRMSIRRVMS (YARAAARQARASLQHICRMSIRRVMS) [sample 2]”, the “degree of neuronal differentiation” value in test [1] and in test [2] was “significant neuronal differentiation” each time.

“YARAAARQARA-SLQHICRTVICNCTT (YARAAARQARASLQHICRTVICNCTT) [sample 14]”: the “degree of neuronal differentiation” value in test [1] and in test [2] was “significant neuronal differentiation” throughout.

For “YARAAARQARA-SLQHLCRFRIRQLVR (YARAAARQARASLQHLCRFRIRQLVR) [sample 4]”, the “degree of neuronal differentiation” value in test [1] and in test [2] was “significant neuronal differentiation” in each case.

As for “YARAAARQARA-SLQHLCRLVINRLVA (YARAAARQARASLQHLCRLVINRLVA) [sample 24]”, the “degree of neuronal differentiation” value in test [1] and in test [2] was “significant neuronal differentiation” in each case.

As to “YARAAARQARA-SLQYICRAVICRCTT (YARAAARQARASLQYICRAVICRCTT) [sample 9]”, the “degree of neuronal differentiation” value in test [1] and in test [2] was “significant neuronal differentiation” each time.

Regarding “YARAAARQARA-SLQYLALKALVTPKK (YARAAARQARASLQYLALKALVTPKK-NH2) [sample 19]”, the “degree of neuronal differentiation” value in test [1] and in test [2] was “significant neuronal differentiation” throughout.

For the substance “YARAAARQARA-SLQYLCKFVI (YARAAARQARASLQYLCKFVI) [sample 22]”, the “degree of neuronal differentiation” value in test [1] and in test [2] was “significant neuronal differentiation” in each case.

As to “YARAAARQARA-SLQYLCRFVI (YARAAARQARASLQYLCRFVI) [sample 15, PTD4 plus 10 residues from the N terminal of the BC-box of hSOCS-6]”, the “degree of neuronal differentiation” value in test [1] and in test [2] was “significant neuronal differentiation” each time.

With “YARAAARQARA-SLQYLCRFVIRQYTK (YARAAARQARASLQYLCRFVIRQYTK) [sample 18]”, the “degree of neuronal differentiation” value in test [1] and in test [2] was “significant neuronal differentiation” in each case.

For “YARAAARQARA-SLTHLCRLEIRSSIK (YARAAARQARASLTHLCRLEIRSSIK) [sample 8]”, the “degree of neuronal differentiation” value in test [1] and in test [2] was “significant neuronal differentiation” in each case.

Take “YARAAARQARA-TLLSLCRVAV (YARAAARQARATLLSLCRVAV) [sample 16, PTD4 plus 10 residues from the N terminal of the BC-box of mASB-1]”: the “degree of neuronal differentiation” value in test [1] and in test [2] was “significant neuronal differentiation” in each case.

Take “YARAAARQARA-TLLSLCRVAVRRALG (YARAAARQARATLLSLCRVAVRRALG) [sample 3]”: the “degree of neuronal differentiation” value in test [1] and in test [2] was “significant neuronal differentiation” in each case.

“YARAAARQARA-TLQHFCRLAINKCT (YARAAARQARATLQHFCRLAINKCT) [sample 12]”: the “degree of neuronal differentiation” value in test [1] and in test [2] was “significant neuronal differentiation” in each case.

Turning to “YARAAARQARA-TLQHLCRKTVNGHLD (YARAAARQARATLQHLCRKTVNGHLD) [sample 13]”, the “degree of neuronal differentiation” value in test [1] and in test [2] was “significant neuronal differentiation” each time.

The values above are taken from US20090253618A1, “NEURONAL DIFFERENTIATION-INDUCING PEPTIDE AND USE THEREOF” (TOAGOSEI CO., LTD, priority 2005, published 2009).
